Test [1] deals with T1, ROCKII (1-543) (Homo sapiens (Human), UniProt O75116). The experiment in a line: Luciferin-Luciferase Assay (Assay 1). Conditions: luciferin-luciferase residual ATP; 750 nM ATP, 7.5 nM kinase. In kind it is biochemical. The method, then: 1. Luciferin-Luciferase Assay
The activity of ROCKII (1-543) kinase is measured utilizing Cambrex PKLight ATP Detection Reagent, a homogeneous assay technology using luciferin-luciferase to quantify residual ATP. The assay is performed in 384-well low-volume, white, non-binding surface microtiter plates (Corning). The assay buffer is 25 mM HEPES, pH 7.5, 10 mM MgCl2, 50 mM KCl, 0.2% BSA, 0.01% CHAPS, 100 μM Na3VO4 and 0.5 mM DTT. Test compounds, dissolved in neat DMSO at 500 μg/mL, are serially diluted for dose response for a final starting concentration of 3 μg/mL in 1% DMSO of assay buffer. ROCKII (1-543) (62,408 Da) is diluted in assay buffer to a final concentration of 7.5 nM in a total volume of 15 μL. Positive controls are reaction mixtures containing no test compound; negative controls (blanks) are reaction mixtures containing no kinase. After 15 minutes of pre-incubation of the test compounds with the kinase, a mixture of ATP and peptide substrate ([…]) in assay buffer is added to each well for a final concentration of 750 nM ATP and 500 nM peptide, respectively. After 90 minutes of incubation of the kinase reaction at 28° C. temperature, 10 μL of PKLight ATP Detection Reagent (warmed to room temperature previously) is added to each well. The assay plate is incubated at room temperature for additional 15 minutes and then read on an Analyst in luminescence mode. Dose-response experiments for each of the test compounds are conducted in quadruplet. IC50 values of test compounds represent 50% response of the positive control from the dose-response curve.
Target sequence in this assay (O75116 1-543): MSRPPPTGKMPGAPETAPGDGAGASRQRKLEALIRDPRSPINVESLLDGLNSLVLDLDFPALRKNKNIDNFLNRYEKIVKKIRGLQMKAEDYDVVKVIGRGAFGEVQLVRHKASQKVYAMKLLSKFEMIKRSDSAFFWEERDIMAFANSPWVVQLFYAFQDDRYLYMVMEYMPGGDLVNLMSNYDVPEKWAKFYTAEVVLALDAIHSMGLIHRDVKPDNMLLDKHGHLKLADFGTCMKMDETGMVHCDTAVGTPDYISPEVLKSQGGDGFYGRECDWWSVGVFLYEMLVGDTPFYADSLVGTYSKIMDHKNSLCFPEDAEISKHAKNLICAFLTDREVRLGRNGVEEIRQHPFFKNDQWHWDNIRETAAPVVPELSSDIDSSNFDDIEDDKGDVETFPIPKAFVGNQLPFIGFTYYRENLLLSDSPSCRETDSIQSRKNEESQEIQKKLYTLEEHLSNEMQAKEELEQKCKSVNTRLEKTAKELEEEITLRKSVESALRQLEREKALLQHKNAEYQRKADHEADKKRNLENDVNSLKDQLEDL

For test [2], the target named is T1, ROCKII (1-543). In words: IMAP Assay (Assay 2). The class given is biochemical. The following applies: IMAP fluorescence polarization; 100 μM ATP, 1 nM kinase. How it is done: This assay is performed using FAM S6 substrate peptide (Catalogue #R7184) and IMAP FP Screening Express Kit detection reagents from Molecular Devices (Sunnyvale, Calif.) in IMAP kinase reaction buffer (Tris-HCl, pH 7.2, 10 mM MgCl2, 0.05% NaN3, 0.1% phosphate-free BSA) containing 1 mM DTT. Test compounds dissolved in neat DMSO at 0.3 mg/mL are serially diluted 1 to 3 for concentration response in 100% DMSO. The DMSO serial dilutions are further diluted 33.33-fold in kinase reaction buffer, and 10 μL of this buffer dilution is transferred to Corning black 96-well half area NBS plates for a final top concentration of 3 μg/mL in 1% DMSO. 10 μL aliquot of 3 nM ROCKII (1-543) diluted in kinase reaction buffer is added to each assay well for a final concentration of 1 nM kinase. 10 μL of a mixture of 600 nM FAM S6 peptide and 300 μM ATP diluted in kinase reaction buffer is added to each well for a final concentration of 200 nM peptide and 100 μM ATP. The kinase reaction mixture is incubated for 60 minutes at room temperature. Positive controls are reaction mixtures containing no test compound and negative controls (blanks) are reaction mixtures containing no kinase. The kinase reaction is stopped by addition of 60 μL IMAP progressive binding reagent (Catalog #R7284) diluted 400-fold in 1× Binding buffer A. After 30 min of incubation at room temperature, the plates are read for fluorescence polarization on Analyst Plate Reader using Ex 485 nm, Em 530 nm, and FL 505 dichroic minor. The mP signals are converted to percent of control (POC) values using the formula: POC=100*(Signal−BCTRL)÷(PCTRL−BCTRL)
Where Signal is the test well signal, BCTRL is the average of background (negative control) well signals on the plate and PCTRL is the average of positive control well signals on the plate. For the concentration-responsive compounds, POC as a function of test compound concentration is fitted to a 4-parameter logistic equation of the form: Y=A+(B−A)/[1+(x/C)D]
Where A, B, C, and D are fitted parameters (parameter B is fixed at zero POC), and x and y are the independent and dependent variables, respectively. The IC50 is determined as the inflection point parameter, C.
Target sequence in this assay (O75116 1-543, species assumed): as the sequence (O75116 1-543) above

The IC50 is the point on the concentration scale where inhibition reaches its midpoint. A lower IC50 goes with greater potency in that assay.

Take `CN1CCc2ccc(NC(=O)c3cccc(CNC(=O)c4cccc(-c5cn[nH]c5)c4)c3)cc2C1` [compound 3]: the values for the IC50 against ROCKII (1-543) [1] and at ROCKII (1-543) [2] were 4 nM and 5.1 nM, respectively. The corresponding values for `CN1CCc2nc(NC(=O)c3cccc(CNC(=O)c4cccc(-c5cccnc5)c4)c3)sc2C1` [compound 4] are 22.5 nM and 73 nM. The corresponding values for `CN1CCc2nc(NC(=O)c3cccc(CNC(=O)c4cccc(-c5cn[nH]c5)c4)c3)sc2C1` [compound 6] are 2 nM and 0.53 nM. `Cc1nnnn1-c1ccc(C(=O)NCc2cccc(C(=O)Nc3nc4c(s3)CN(C)CC4)c2)cc1` [compound 8]: the values for the IC50 on ROCKII (1-543) [1] and against ROCKII (1-543) [2] were 6 nM and 9.8 nM, respectively. The corresponding values for `CN1CCc2nc(NC(=O)c3cccc(CNC(=O)c4csc(-c5cccnc5)n4)c3)sc2C1` [compound 14] are 4.8 nM and 7.9 nM.

Take `CN1CCc2ccc(NC(=O)c3cccc(CNC(=O)c4cn5cc(C(N)=O)ccc5n4)c3)cc2C1` [compound 21]: the IC50 at ROCKII (1-543) [1] is 5.9 nM; against ROCKII (1-543) [2] it was 25 nM.

As for `CN1CCc2nc(NC(=O)c3cccc(CNC(=O)c4csc(-c5ccncc5)n4)c3)sc2C1` [compound 22], the IC50 at ROCKII (1-543) [1] stood at 5.8 nM; against ROCKII (1-543) [2], 37 nM. For `N[C@H]1CCc2nc(NC(=O)c3cccc(CNC(=O)c4ccc(-c5csnn5)cc4)c3)sc2C1` [compound 26] the same measures were 7.6 nM and 40 nM.

`CN1CCc2ccc(NC(=O)c3cccc(CNC(=O)c4csc(-c5cccnc5)n4)c3)cc2C1` [compound 27]: the results for the IC50 against ROCKII (1-543) [1] and against ROCKII (1-543) [2] were 9.8 nM and 45 nM, respectively.

Regarding `N[C@@H]1CCc2nc(NC(=O)c3cccc(CNC(=O)c4cccc(-c5cn[nH]c5)c4)c3)sc2C1` [compound 28], the results for the IC50 at ROCKII (1-543) [1] and against ROCKII (1-543) [2] were 1.1 nM and 0.45 nM, respectively. As to `CN1CCc2ccc(NC(=O)c3cccc(CNC(=O)c4ccc5cc(O)ccc5c4)c3)cc2C1` [compound 29], the concentration for half-maximal inhibition (IC50) amounted to 2.6 nM against ROCKII (1-543) [1] and 2 nM on ROCKII (1-543) [2]. For `N[C@H]1CCc2nc(NC(=O)c3cccc(CNC(=O)c4cccc(-c5cn[nH]c5)c4)c3)sc2C1` [compound 30] the same measures were 0.72 nM and 0.16 nM.

As to `CN1CCc2ccc(NC(=O)c3cccc(CNC(=O)c4ccc(C5=CSNN5)cc4)c3)cc2C1` [compound 31], the half-inhibitory concentration (IC50) against ROCKII (1-543) [1] and on ROCKII (1-543) [2] was 4.6 nM throughout. Take `Cc1nnnn1-c1ccc(C(=O)NCc2cccc(C(=O)Nc3nc4c(s3)C[C@H](N)CC4)c2)cc1` [compound 36]: the IC50 against ROCKII (1-543) [1] amounted to 1.4 nM; on ROCKII (1-543) [2], 3 nM. For the compound `Cc1nnnn1-c1ccc(C(=O)NCc2cccc(C(=O)Nc3nc4c(s3)C[C@@H](N)CC4)c2)cc1` [compound 38], the IC50 stood at 1.1 nM against ROCKII (1-543) [1] and 0.67 nM on ROCKII (1-543) [2]. The corresponding values for `CN1CCc2ccc(NC(=O)c3cccc(CNC(=O)c4ccc(-n5ccnc5)cc4)c3)cc2C1` [compound 39] are 4.9 nM and 9.9 nM. The corresponding values for `N[C@@H]1CCc2nc(NC(=O)c3cccc(CNC(=O)c4cccc(-c5cccnc5)c4)c3)sc2C1` [compound 40] are 1.9 nM and 10 nM. For `N[C@H]1CCc2nc(NC(=O)c3cccc(CNC(=O)c4cccc(-c5cccnc5)c4)c3)sc2C1` [compound 42] the same measures were 1.2 nM and 2 nM. For the compound `Cc1c(C(=O)NCc2cccc(C(=O)Nc3nc4c(s3)CN(C)CC4)c2)nnn1-c1nonc1N` [compound 44], the figures for the IC50 against ROCKII (1-543) [1] and against ROCKII (1-543) [2] were 1.8 nM and 9.3 nM, respectively. For `CN1CCc2nc(NC(=O)c3cccc(CNC(=O)c4nnn(-c5nonc5N)c4-c4ccccc4)c3)sc2C1` [compound 46] the same measures were 1.8 nM and 4.9 nM.

`CN1CCc2ccc(NC(=O)c3cccc(CNC(=O)c4cn5cc(C#N)ccc5n4)c3)cc2C1` [compound 48]: at ROCKII (1-543) [1], the IC50 is 35.5 nM.

For the compound `CN1CCc2ccc(NC(=O)c3cccc(CNC(=O)c4ccc(-c5cnco5)cc4)c3)cc2C1` [compound 49], the 50% inhibitory concentration (IC50) at ROCKII (1-543) [1] was determined as 2.6 nM; on ROCKII (1-543) [2], 26 nM. Consider `CN1CCc2ccc(NC(=O)c3cccc(CNC(=O)c4cccc(-c5cccnc5)c4)c3)cc2C1` [compound 53], for which, on ROCKII (1-543) [1], the midpoint of inhibition, the IC50, lay at 28 nM.

`CN1CCc2ccc(NC(=O)c3cccc(CNC(=O)c4ccc(-c5cccnc5)s4)c3)cc2C1` [compound 62, 5-pyridin-3-yl-thiophene-2-carboxylic acid 3-(2-methyl-1,2,3,4-tetrahydro-isoquinolin-7-ylcarbamoyl)-benzylamide] registered a half-inhibitory concentration (IC50) against ROCKII (1-543) [1] of 18.5 nM. Consider `Cc1ncc(-c2ccc(C(=O)NCc3cccc(C(=O)Nc4ccc5c(c4)CN(C)CC5)c3)s2)o1` [compound 68], for which the IC50 on ROCKII (1-543) [1] turned out to be 64.2 nM.

At ROCKII (1-543) [1], `CN1CCc2ccc(NC(=O)c3cccc(CNC(=O)c4cccc(-c5ccncc5)c4)c3)cc2C1` [compound 69] displayed a 50% inhibitory concentration (IC50) of 44.5 nM.

As to `CN1CCc2nc(NC(=O)c3cccc(CNC(=O)c4cn5cc(C#N)ccc5n4)c3)sc2C1` [compound 88], the IC50 against ROCKII (1-543) [1] was found to be 45.7 nM. On ROCKII (1-543) [1], `CCn1c(C(=O)NCc2cccc(C(=O)Nc3ccc4c(c3)CN(C)CC4)c2)cc2cc(C#N)ccc21` [compound 102] had an IC50 of 47 nM. In the case of `CN1CCc2nc(NC(=O)c3cccc(CNC(=O)c4ccc(-c5cccnc5)s4)c3)sc2C1` [compound 110], on ROCKII (1-543) [1], the IC50 is 15.5 nM. In turn, `Cc1ncc(-c2ccc(C(=O)NCc3cccc(C(=O)Nc4nc5c(s4)CN(C)CC5)c3)s2)o1` [compound 116] yielded a half-inhibitory concentration (IC50) at ROCKII (1-543) [1] of 14.5 nM. `CCn1c(C(=O)NCc2cccc(C(=O)Nc3ccc4c(c3)CN(C)CC4)c2)cc2ccc(C#N)cc21` [compound 118] displayed an IC50 against ROCKII (1-543) [1] of 24 nM. On the same count and under the same terms, to `CN1CCc2ccc(NC(=O)c3cccc(CNC(=O)C4=NC5=CC=NC(=O)C5C=C4)c3)cc2C1` (stereo not drawn) [compound 122] belongs 27.5 nM; to `CN1CCc2ccc(NC(=O)c3cccc(CNC(=O)c4cc5cccc(O)c5cc4O)c3)cc2C1` [compound 133], 80 nM.

`CN1CCc2ccc(NC(=O)c3cccc(CNC(=O)c4ccc(-c5nnco5)cc4)c3)cc2C1` [compound 145] returned an IC50 against ROCKII (1-543) [1] of 49.3 nM.

With `CN1CCc2ccc(NC(=O)c3cccc(CNC(=O)c4ccc5[nH]c(=O)ccc5c4)c3)cc2C1` [compound 175], the IC50 at ROCKII (1-543) [1] stood at 22.5 nM.

`CN1CCc2ccc(NC(=O)c3cccc(CNC(=O)c4ccc(-c5ccc(N)nc5)s4)c3)cc2C1` [compound 177]: 68 nM corresponded to half-maximal inhibition at ROCKII (1-543) [1] (IC50).

With `CN1CCc2ccc(NC(=O)c3cccc(CNC(=O)c4ccc5c(c4)OCC(=O)N5)c3)cc2C1` [compound 182], half-maximal inhibition at ROCKII (1-543) [1] (IC50) required 81 nM.

Turning to `CN1CCc2ccc(NC(=O)c3cccc(CNC(=O)c4ccc5c(c4)CCC(=O)N5)c3)cc2C1` [compound 184], the IC50 on ROCKII (1-543) [1] turned out to be 18 nM. At ROCKII (1-543) [1], `CN1CCc2ccc(NC(=O)c3cccc(CNC(=O)c4cccc(-n5ccnc5)c4)c3)cc2C1` [compound 186] showed an IC50 of 14.5 nM. At ROCKII (1-543) [1], `CN1CCc2ccc(NC(=O)c3cccc(CNC(=O)c4cc(-c5cccnc5)[nH]n4)c3)cc2C1` [compound 188] had an IC50 of 91.5 nM.

`Cc1nc2cnccc2n1-c1ccc(C(=O)NCc2cccc(C(=O)Nc3ccc4c(c3)CN(C)CC4)c2)cc1` [compound 198] returned an IC50 on ROCKII (1-543) [1] of 38 nM. Still for that read-out and setting: to `CCN1C(=O)CSc2ccc(C(=O)NCc3cccc(C(=O)Nc4ccc5c(c4)CN(C)CC5)c3)cc21` [compound 210] belongs 86 nM.

Values taken from patent US8697911B2, “Rho kinase inhibitors” (Boehringer Ingelheim International GmbH, priority 2010, dated 2014).
